Laboratory results reported in PMC4393269, “Carvacrol Codrugs: A New Approach in the Antimicrobial Plan” (PLoS ONE, 2015).
In brackets after ≈: the same amount, converted by molar mass. Like-named read-outs stand apart in the source and are kept apart here.

Columns and labels:
Assay type in all cases: cell-based
C. albicans ATCC 10231 [1] = test: Broth microdilution MIC/MFC; settings: Candida albicans, ATCC10231
Method: (§1) Two Gram-positive (S. aureus ATCC 29213 and S. epidermidis ATCC 35984) and two Gram-negative (E. coli ATCC 8739 and P. aeruginosa ATCC 9027) strains, and one fungal strain (C. albicans ATCC 10231) were used for the detection of antibacterial activity of carvacrol, NAC, Ac-Cys(Allyl)-OH, and carvacrol codrugs 1–10. All tested compounds were dissolved in 20% DMSO to prepare the stock solution (100 mg/mL). The final concentration of DMSO in each well appeared to be not toxic for all studied microorganisms, as confirmed by the solvent control test included in the study.
The MIC detection of C. albicans ATCC 10231 was performed using the broth microdilution method according to EUCAST guidelines in RPMI 1640 plus 2% glucose with a final inoculum of 1–5 x 10^5 CFU/mL for 24–48 h at 37°C. The Minimum Fungicidal Concentration (MFC) was determined as the lowest concentration of substances at which no fungal growth occurred on Sabouraud agar plates.
(§2) Data were obtained from at least three independent experiments performed in duplicate. The susceptibility of the bacterial strains against ciprofloxacin was used as an internal standard during MIC determinations.

S. aureus ATCC 29213 [2] = test: Antibiofilm assay on established biofilm (BIC/BEC); settings: S. aureus ATCC 29213 established biofilm
Method: (§3) The efficacy on established biofilm was evaluated by determining Biofilm Inhibitory Concentration (BIC) and Biofilm Eradication Concentration (BEC) according to the method described by Johnson et al. with some modifications. Bacterial suspensions, grown in Tryptic soy broth supplemented with 0.5% (v/v) glucose at logarithmic phase, as well as C. albicans grown in RPMI 1640 plus 2% glucose, were incubated on flat-bottomed microtiter plates at a concentration of 5 x 10^5 CFU/mL. After 24 h of incubation at 37°C, the planktonic cells were gently removed and wells were washed with sterile phosphate-buffered saline solution (PBS) pH 7.3 and filled with carvacrol, carvacrol codrug 4, Ac-Cys(Allyl)-OH with dilutions ranging from the MIC values to a maximum concentration of 50 mg/mL. The OD600 was measured at time 0 and after incubation for 24 h at 37°C. The BIC values were determined as the lowest concentrations where no growth occurred in the supernatant fluid, confirmed by no increase in optical density compared with the initial reading. The BEC values were determined as the lowest concentrations at which no bacterial growth occurred on Tryptic soy agar for bacteria and on Sabouraud agar for C. albicans. Data were obtained from at least three independent experiments performed in duplicate.

C. albicans ATCC 10231 [3] = test: Antibiofilm assay on established biofilm (BIC/BEC)
Method: as §3

P. aeruginosa ATCC 9027 [4] = test: Antibiofilm assay on established biofilm (BIC/BEC)
Method: as §3

E. coli ATCC 8739 [5] = test: Antibiofilm assay on established biofilm (BIC/BEC)
Method: as §3

[6] = test system: S. epidermidis ATCC 35984; test: Antibiofilm assay on established biofilm (BIC/BEC)
Method: as §3

S. aureus ATCC 29213 [7] = test: Broth microdilution MIC/MBC on planktonic cells; settings: Staphylococcus aureus
Method: as §1
(§4) The effects of carvacrol codrugs 1–10 and reference compounds on planktonic cells were evaluated by Minimum Inhibitory Concentration (MIC) and Minimum Bactericidal Concentration (MBC) determination using the broth microdilution method according to EUCAST guidelines. Bacterial suspensions, grown in Mueller–Hinton Broth (MHB) at logarithmic phase, were incubated on microtiter plates at a concentration of 5 x 10^5 CFU/mL, with several dilutions (0.07–40 mg/mL) for 24 h at 37°C. The MIC was defined as the lowest concentration of substances giving a complete inhibition of visible growth in comparison with a control well, and the MBC was determined as the lowest concentration at which no bacterial growth occurred on Mueller–Hinton Agar plates.
as §2

P. aeruginosa ATCC 9027 [8] = test: Broth microdilution MIC/MBC on planktonic cells; settings: Pseudomonas aeruginosa
Method: as §1, §4, §2

E. coli ATCC 8739 [9] = test: Broth microdilution MIC/MBC on planktonic cells; settings: Escherichia coli
Method: as §1, §4, §2

[10] = test system: S. epidermidis ATCC 35984; test: Broth microdilution MIC/MBC on planktonic cells; settings: Staphylococcus epidermidis
Method: as §1, §4, §2

[11] = test system: Gram positive and Gram negative tested bacteria; test: Broth microdilution MIC/MBC, range over the bacterial panel; settings: Gram positive and Gram negative tested bacteria
Method: as §1
as §4, with “plates. […]” for “plates.”

[12] = test system: human red blood cells (h-RBC); test: Hemolytic activity; settings: 4% h-RBC, 1 h at 37°C
Method: Experimental protocols to study hemolysis on human red cells were approved by Ethics Committee of the University “G. d’Annunzio” Chieti-Pescara. Human red cells were from two volunteers, who signed the informed consent for this study.
Hemolytic activity of carvacrol codrugs 1–10 was tested against human red blood cells (h-RBC). Fresh human blood, collected with EDTA, was centrifuged at 3000 rpm for 5 min then washed three times with PBS pH 7.3. Red blood cells were diluted to 4% in PBS and incubated with different codrugs concentrations ranging from 25 to 0.05 mg/mL. After 1 h of incubation at 37°C, the suspensions were sedimented by centrifugation and the release of hemoglobin was determined by absorbance measurement at 405 nm and compared with a 0% hemolysis control (PBS) and a 100% hemolysis control (PBS with 1% v/v Triton X-100). The percentage of hemolysis was calculated using the following equation: Hemolysis (%) = [(OD405sample - OD4050% lysis control)/(OD405100% lysis control - OD4050% lysis contro)] X 100

[13] = C. albicans ATCC 10231, 24–48 h at 37°C, read-out: MIC
[14] = C. albicans ATCC 10231, read-out: MFC
[15] = ATCC29213, S. aureus ATCC 29213, 24 h at 37°C, read-out: MIC
[16] = ATCC29213, S. aureus ATCC 29213, read-out: MBC
[17] = ATCC9027, P. aeruginosa ATCC 9027, 24 h at 37°C, read-out: MIC
[18] = ATCC9027, P. aeruginosa ATCC 9027, read-out: MBC
[19] = ATCC8739, E. coli ATCC 8739, 24 h at 37°C, read-out: MIC
[20] = ATCC8739, E. coli ATCC 8739, read-out: MBC
[21] = ATCC35984, S. epidermidis ATCC 35984, 24 h at 37°C, read-out: MIC
[22] = ATCC35984, S. epidermidis ATCC 35984, read-out: MBC

## Cc1ccc(C(C)C)cc1O [Carvacrol, 2-methyl-5-[1-methylethyl]phenol]
C. albicans ATCC 10231 [1]
  MFC: 600 µg/mL (≈ 3.99 mM)
  MIC: 300 µg/mL (≈ 2 mM)
S. aureus ATCC 29213 [2]
  BEC: 2.5 mg/mL
S. aureus ATCC 29213 [2]; 24 h
  BIC: 1.2 mg/mL
C. albicans ATCC 10231 [3]; C. albicans ATCC 10231
  BEC as multiple of MIC: MFC
C. albicans ATCC 10231 [3]; C. albicans ATCC 10231 established biofilm
  BEC: 0.6 mg/mL
C. albicans ATCC 10231 [3]; C. albicans ATCC 10231 established biofilm, 24 h
  BIC: 0.3 mg/mL
P. aeruginosa ATCC 9027 [4]; P. aeruginosa ATCC 9027
  BEC as multiple of MIC: 2MIC
P. aeruginosa ATCC 9027 [4]; P. aeruginosa ATCC 9027 established biofilm
  BEC: 10 mg/mL
P. aeruginosa ATCC 9027 [4]; P. aeruginosa ATCC 9027 established biofilm, 24 h
  BIC: 5 mg/mL
E. coli ATCC 8739 [5]; E. coli ATCC 8739
  BEC as multiple of MIC: 64MIC
  BIC as multiple of MIC: 64MIC
E. coli ATCC 8739 [5]; E. coli ATCC 8739 established biofilm
  BEC: 40 mg/mL
E. coli ATCC 8739 [5]; E. coli ATCC 8739 established biofilm, 24 h
  BIC: 40 mg/mL
[6]; S. epidermidis ATCC 35984
  BEC as multiple of MIC: 2MIC
[6]; S. epidermidis ATCC 35984 established biofilm
  BEC: 0.6 mg/mL
[6]; S. epidermidis ATCC 35984 established biofilm, 24 h
  BIC: 0.3 mg/mL
S. aureus ATCC 29213 [7]; ATCC29213
  MBC: 1250 µg/mL (≈ 8.32 mM)
S. aureus ATCC 29213 [7]; ATCC29213, 24 h
  MIC: 600 µg/mL (≈ 3.99 mM)
P. aeruginosa ATCC 9027 [8]; ATCC9027
  MBC: 10000 µg/mL (≈ 66.6 mM)
P. aeruginosa ATCC 9027 [8]; ATCC9027, 24 h
  MIC: 5000 µg/mL (≈ 33.3 mM)
E. coli ATCC 8739 [9]; ATCC8739
  MBC: 1250 µg/mL (≈ 8.32 mM)
E. coli ATCC 8739 [9]; ATCC8739, 24 h
  MIC: 600 µg/mL (≈ 3.99 mM)
[10]; ATCC35984
  MBC: 1250 µg/mL (≈ 8.32 mM)
[10]; ATCC35984, 24 h
  MIC: 300 µg/mL (≈ 2 mM)

## CC(=O)N[C@@H](CS)C(=O)O [NAC, N-Acetyl-cysteine, reference compound]
C. albicans ATCC 10231 [1]; [13]
  MIC: 20000 µg/mL (≈ 123 mM)
C. albicans ATCC 10231 [1]; [14]
  MFC: 80000 µg/mL (≈ 490 mM)
[11]
  MIC and MBC values (range over strains): 5000 to 20000 µg/mL
S. aureus ATCC 29213 [7]; [15]
  MIC: 5000 µg/mL (≈ 30.6 mM)
S. aureus ATCC 29213 [7]; [16]
  MBC: 20000 µg/mL (≈ 123 mM)
P. aeruginosa ATCC 9027 [8]; [17]
  MIC: 5000 µg/mL (≈ 30.6 mM)
P. aeruginosa ATCC 9027 [8]; [18]
  MBC: 5000 µg/mL (≈ 30.6 mM)
E. coli ATCC 8739 [9]; [19]
  MIC: 5000 µg/mL (≈ 30.6 mM)
E. coli ATCC 8739 [9]; [20]
  MBC: 5000 µg/mL (≈ 30.6 mM)
[10]; [21]
  MIC: 5000 µg/mL (≈ 30.6 mM)
[10]; [22]
  MBC: 5000 µg/mL (≈ 30.6 mM)

## CC(=O)N[C@@H](CS)C(=O)Oc1cc(C(C)C)ccc1C [codrug 1, NAC-CAR]
C. albicans ATCC 10231 [1]; [13]
  MIC: 300 µg/mL (≈ 1.02 mM)
C. albicans ATCC 10231 [1]; [14]
  MFC: 300 µg/mL (≈ 1.02 mM)
[12]; 25 to 0.05 mg/mL
  hemolytic activity, maximum at the tested concentrations: ≤ 40%
S. aureus ATCC 29213 [7]; [15]
  MIC: 10000 µg/mL (≈ 33.9 mM)
S. aureus ATCC 29213 [7]; [16]
  MBC: 10000 µg/mL (≈ 33.9 mM)
P. aeruginosa ATCC 9027 [8]; [17]
  MIC: 10000 µg/mL (≈ 33.9 mM)
P. aeruginosa ATCC 9027 [8]; [18]
  MBC: 10000 µg/mL (≈ 33.9 mM)
E. coli ATCC 8739 [9]; [19]
  MIC: 10000 µg/mL (≈ 33.9 mM)
E. coli ATCC 8739 [9]; [20]
  MBC: 10000 µg/mL (≈ 33.9 mM)
[10]; [21]
  MIC: 5000 µg/mL (≈ 16.9 mM)
[10]; [22]
  MBC: 20000 µg/mL (≈ 67.7 mM)

## CSC[C@H](NC(C)=O)C(=O)Oc1cc(C(C)C)ccc1C [codrug 2, N-Ac-Cys(Methyl)-CAR]
C. albicans ATCC 10231 [1]; [13]
  MIC: 5000 µg/mL (≈ 16.2 mM)
C. albicans ATCC 10231 [1]; [14]
  MFC: 5000 µg/mL (≈ 16.2 mM)
[12]
  concentration at which hemolytic activity is over 50%: over 20 mg/mL
S. aureus ATCC 29213 [7]; [15]
  MIC: 10000 µg/mL (≈ 32.3 mM)
S. aureus ATCC 29213 [7]; [16]
  MBC: 10000 µg/mL (≈ 32.3 mM)
P. aeruginosa ATCC 9027 [8]; [17]
  MIC: 10000 µg/mL (≈ 32.3 mM)
P. aeruginosa ATCC 9027 [8]; [18]
  MBC: 10000 µg/mL (≈ 32.3 mM)
E. coli ATCC 8739 [9]; [19]
  MIC: 10000 µg/mL (≈ 32.3 mM)
E. coli ATCC 8739 [9]; [20]
  MBC: 10000 µg/mL (≈ 32.3 mM)
[10]; [21]
  MIC: 2500 µg/mL (≈ 8.08 mM)
[10]; [22]
  MBC: 10000 µg/mL (≈ 32.3 mM)

## CCSC[C@H](NC(C)=O)C(=O)Oc1cc(C(C)C)ccc1C [codrug 3, N-Ac-Cys(Ethyl)-CAR]
C. albicans ATCC 10231 [1]; [13]
  MIC: 2500 µg/mL (≈ 7.73 mM)
C. albicans ATCC 10231 [1]; [14]
  MFC: 2500 µg/mL (≈ 7.73 mM)
[12]
  concentration at which hemolytic activity is over 50%: over 20 mg/mL
S. aureus ATCC 29213 [7]; [15]
  MIC: 10000 µg/mL (≈ 30.9 mM)
S. aureus ATCC 29213 [7]; [16]
  MBC: 10000 µg/mL (≈ 30.9 mM)
P. aeruginosa ATCC 9027 [8]; [17]
  MIC: 10000 µg/mL (≈ 30.9 mM)
P. aeruginosa ATCC 9027 [8]; [18]
  MBC: 10000 µg/mL (≈ 30.9 mM)
E. coli ATCC 8739 [9]; [19]
  MIC: 10000 µg/mL (≈ 30.9 mM)
E. coli ATCC 8739 [9]; [20]
  MBC: 10000 µg/mL (≈ 30.9 mM)
[10]; [21]
  MIC: 10000 µg/mL (≈ 30.9 mM)
[10]; [22]
  MBC: 10000 µg/mL (≈ 30.9 mM)
